The source made the active and inactive calls. No cut-off for these calls is given here.
How the values were obtained:
[1] = test system: CHO; assay: Percentage response for agonist like activity at 10 uM, relative to maximal orexin-A induced response in CHO cells was determined; assay type: functional, Cricetulus griseus
[2] = test system: CHO; assay: Percentage response at 10 uM, relative to maximal orexin-A induced response; Inactive; assay type: functional, cell-based; details: Cricetulus griseus
[3] = test system: CHO; assay: Percentage response for agonist like activity at 10 uM, relative to maximal orexin-A induced response in CHO cells was determined; Inactive; assay type: functional, cell-based; details: Cricetulus griseus
[4] = Functional potency was determined by concentration required for activation of OX1 (Orexin-1) receptor expressed in chinese hamster ovary cells (CHO) and increasing the intracellular calcium concentration; assay type: cell-based; details: Cricetulus griseus
[5] = target: T1, Orexin/Hypocretin receptor type 1 (Homo sapiens, UniProt O43613); assay: Binding affinity to Orexin receptor type 1 was determined using laser scanning cytometry
T1 sequence (O43613 whole entry): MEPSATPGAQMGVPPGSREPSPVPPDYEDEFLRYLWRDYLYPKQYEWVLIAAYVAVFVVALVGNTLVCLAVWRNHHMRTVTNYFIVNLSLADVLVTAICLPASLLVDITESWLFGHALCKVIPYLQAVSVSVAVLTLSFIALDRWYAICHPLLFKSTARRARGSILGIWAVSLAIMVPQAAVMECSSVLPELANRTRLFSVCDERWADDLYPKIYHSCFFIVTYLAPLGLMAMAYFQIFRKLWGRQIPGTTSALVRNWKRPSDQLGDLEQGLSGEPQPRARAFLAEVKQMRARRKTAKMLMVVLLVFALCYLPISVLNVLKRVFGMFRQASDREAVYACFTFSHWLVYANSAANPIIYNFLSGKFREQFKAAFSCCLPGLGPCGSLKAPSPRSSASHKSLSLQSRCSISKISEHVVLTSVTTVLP

[6] = target: T2, Orexin/Hypocretin receptor type 1 (Homo sapiens) (UniProt O43613); assay: Compound was tested for antagonist activity expressed as percentage response at 10 uM, relative to maximal orexin-A induced response against OX1 receptor; IA is Inactive; assay type: functional
T2 sequence (whole entry): T1 sequence (O43613 whole entry)

H-RLYELLHGAGNHAAGILAL-NH2
Activity [1]: 39%

H-RLYELLHGAGNHAAGILTA-NH2
Activity [1]: 15%

H-RLYELLHGAGNHAAGALTL-NH2
Activity [2]: inactive

H-GILTL-NH2
Activity [3]: inactive

H-LLHGAGNHAAGILTL-NH2
Activity [1]: 16%

H-RLYELLHAAGNHAAGILTL-NH2
EC50 [4]: 0.646 µM

H-ELLHGAGNHAAGILTL-NH2
Ki [5]: 66.1 µM
Activity [1]: 13%

H-RLYELLHGAGNHAAGIATL-NH2
Activity [1]: 12%

H-GNHAAGILTL-NH2
Activity [6]: inactive

H-RLYELLAGAGNHAAGILTL-NH2
EC50 [4]: 1.29 µM

H-ALYELLHGAGNHAAGILTL-NH2
EC50 [4]: 0.347 µM

H-RLAELLHGAGNHAAGILTL-NH2
EC50 [4]: 0.776 µM

H-RAYELLHGAGNHAAGILTL-NH2
Activity [1]: 71%

H-RLYELAHGAGNHAAGILTL-NH2
Activity [1]: 37%

H-RLYEALHGAGNHAAGILTL-NH2
Activity [1]: 60%

CC[C@H](C)[C@H](NC(=O)CNC(=O)[C@H](C)NC(=O)[C@H](C)NC(=O)[C@H](Cc1c[nH]cn1)NC(=O)[C@H](CC(N)=O)NC(=O)CNC(=O)[C@H](C)NC(=O)CNC(=O)[C@H](Cc1c[nH]cn1)NC(=O)[C@H](CC(C)C)NC(=O)[C@H](CC(C)C)NC(=O)[C@H](CCC(=O)O)NC(=O)[C@H](Cc1ccc(O)cc1)NC(=O)[C@H](CC(C)C)NC(=O)[C@@H](N)CCCN=C(N)N)C(=O)N[C@@H](CC(C)C)C(=O)N[C@@H](C(=O)N[C@@H](CC(C)C)C(N)=O)[C@@H](C)O
Activity [3]: inactive

H-YELLHGAGNHAAGILTL-NH2
Activity [1]: 40%

H-RLYELLHGAGNAAAGILTL-NH2
Activity [1]: 61%

CC[C@H](C)[C@H](NC(=O)[C@@H](C)NC(=O)[C@H](C)NC(=O)[C@H](C)NC(=O)[C@H](Cc1c[nH]cn1)NC(=O)[C@H](CC(N)=O)NC(=O)CNC(=O)[C@H](C)NC(=O)CNC(=O)[C@H](Cc1c[nH]cn1)NC(=O)[C@H](CC(C)C)NC(=O)[C@H](CC(C)C)NC(=O)[C@H](CCC(=O)O)NC(=O)[C@H](Cc1ccc(O)cc1)NC(=O)[C@H](CC(C)C)NC(=O)[C@@H](N)CCCN=C(N)N)C(=O)N[C@@H](CC(C)C)C(=O)N[C@H](C(=O)N[C@@H](CC(C)C)C(N)=O)[C@@H](C)O
Activity [1]: 15%

CC[C@H](C)[C@H](NC(=O)CNC(=O)[C@H](C)NC(=O)[C@H](C)NC(=O)[C@H](Cc1cnc[nH]1)NC(=O)[C@H](CC(N)=O)NC(=O)CNC(=O)[C@H](C)NC(=O)CNC(=O)[C@H](Cc1cnc[nH]1)NC(=O)[C@H](CC(C)C)NC(=O)[C@H](CC(C)C)NC(=O)[C@H](CCC(=O)O)NC(=O)[C@H](Cc1ccc(O)cc1)NC(=O)[C@H](CC(C)C)NC(=O)[C@@H](N)CCCNC(=N)N)C(=O)N[C@@H](CC(C)C)C(=O)N[C@H](C(=O)N[C@@H](CC(C)C)C(N)=O)[C@@H](C)O
EC50 [4]: 0.355 µM
Ki [5]: 0.269 µM

H-RLYALLHGAGNHAAGILTL-NH2
EC50 [4]: 0.195 µM

H-RLYELLHGAANHAAGILTL-NH2
EC50 [4]: 0.832 µM

Source: ChEMBL document CHEMBL1134228, “Structure-activity analysis of truncated orexin-A analogues at the orexin-1 receptor” (Bioorg Med Chem Lett, 2001)
